According to patent US9394544B2, “Ameliorating oxidative stress in neurodegenerative disease via Nox1 targeting” (University of Central Florida Research Foundation, Inc., priority 2013, dated 2016):

Assays:
Type in all cases: cell-based, rat
N27 cells = assay: 8-oxo-dG immunostaining (oxidative DNA damage) in N27 cells
From the text: To substantiate that nuclear Nox1/Rac1 complex produces superoxide, it was investigated whether selective inhibition of the Nox1/Rac1 complex attenuates ROS production. Adeno-associated virus serotype 2 (AAV2) expression cassettes with either Nox1 shRNA or a T17N dominant negative Rac1 variant were used to knockdown Nox1 or inhibit Rac1, respectively. These vectors separately expressed Green Fluorescent Protein (GFP) as a marker for transduction efficiency. […] The increased levels of active Nox1/Rac1 complex (FIG. 4B) in the nucleus, and increased ROS (FIGS. 5A and 5B) of DA cells in the presence of 6-OHDA, led one to investigate whether oxidative DNA damage occurs in the nucleus. […] As early as 3 days after striatal injection of 6-OHDA, 8-oxo-dG staining was increased in the SN (FIG. 5E). […]
For fluorescent immunostaining, N27 cells in the 4-well chamber slide were incubated for 1 h at 37° C. in 2% normal donkey serum containing either a rabbit polyclonal antibody against Nox1 (1:500), or p-c-jun (1:500). […] Specific binding was detected by incubation for 60 min at room temperature with a 1:200 dilution of secondary antibodies conjugated to AlexaFluor 546 dyes. […] Mounted slices were evaluated for fluorescence under settings for 546 and 488 nm emissions on a confocal microscope.

[1] = system: Flag-tagged wild-type (WT) α-synuclein; assay: Aggregation of overexpressed flag-tagged WT α-synuclein in N27 cells exposed to PQ
Experimental: Human α-synuclein was cloned into the p3xFLAG-myc-CMV-23 expression vector (Sigma) for N- and C-terminal tagging with FLAG and Myc, respectively. For transient overexpression of tagged α-synuclein, N27 cells were plated onto 24-well plates with coverslips at 0.5×10^5 cells per well 1 d before transfection. The next day, cells were transiently transfected with FLAG-WTsyn-myc. Briefly, 1 μg of plasmid DNA was mixed with 6 μl of Lipofectamine 2000 (Invitrogen) in 100 μl of Opti-MEM for 20 min before addition in the culture. After 6 h of incubation, the culture medium was changed and 100 μl of Nox1 shRNA/LVX viral particle was added to each well. Cells were maintained for an additional 36 h before treatment with 800 μM or 1000 μM PQ for 8 and 24 h.
After each respective treatment, cells were fixed in 4% paraformaldehyde (PFA) for 20 min and permeabilized with 0.1% Triton X-100 in PBS for 10 min. Blocking was performed by incubation with 20% goat or donkey serum in PBS containing 0.1% Tween 20 for 90 min at room temperature. […] For quantification of Flag^+ and α-synuclein^+ cells, >30 different fields per coverslip were analyzed on a Nikon inverted fluorescent microscope under a 20× and 40× magnification.

α-synuclein = assay: α-Synuclein aggregation (immunocytochemistry, PK resistance, A11) in N27 cells exposed to PQ; settings: for increase in aggregated α-synuclein-positive cells vs control: 24 h
Experimental: The same Nox1 shRNA used for AAV2 construct was cloned into a pLVX-shRNA2 vector containing zsGreen1 (Clontech). To make lentiviral particles, ViraPower Lentiviral Expression System (Invitrogen) was used. […]. For 6-well plates, 8 μg of each plasmid was mixed in a 1:1:1:1 ratio in 100 μl of Xfect polymer buffer and then added to the cells. After 48 h, the viral-containing medium was harvested and centrifuged briefly at 500×g for 10 min to remove cellular debris and supernatant recovered and kept at −80° C. until used.
After each respective treatment, cells were fixed in 4% paraformaldehyde (PFA) for 20 min and permeabilized with 0.1% Triton X-100 in PBS for 10 min. Blocking was performed by incubation with 20% goat or donkey serum in PBS containing 0.1% Tween 20 for 90 min at room temperature. The cells were then incubated for 120 min at room temperature with the following primary antibodies, according to the aim of the experiment: goat anti-Nox1 (1:50), rabbit anti-TH (1:10,000), mouse anti-Flag (1:150), mouse anti-α-synuclein (1:150), and rabbit anti-A11 (2.5 μg/ml). After washing, cells were incubated for 120 min with the appropriate secondary antibodies conjugated to Alexa Fluor 647 or Alexa Fluor 488 (1:1000). For nuclear visualization coverslips were incubated with 2 μM Hoechst for 10 min. For quantification of Flag^+ and α-synuclein^+ cells, >30 different fields per coverslip were analyzed on a Nikon inverted fluorescent microscope under a 20× and 40× magnification.
Immunocytochemistry for proteinase K (PK)-resistant α-synuclein was performed based on a methodology reported previously (Neumann et al., 2002), with some modifications. Briefly, fixed cells were permeabilized with 0.1% Tween 20 and then digested for 30 min at 37° C. with PK (10 μg/ml). PK was inactivated with 3 M guanidine thiocyanate in 10 mM Tris-HCl solution for 10 min. Between each step, cells were washed gently three times with PBS. Cells were then incubated for 60 min with blocking solution containing 10% donkey serum followed by an overnight incubation with mouse anti-α-synuclein antibody (1:150). The day after, cells were incubated with secondary antibodies conjugated to Alexa Fluor 647 donkey anti-mouse for 60 min and with 2 μM Hoechst solution for 10 min. For PK-resistant α-synuclein evaluation in rat SN, 40 μm sections from 4% PFA fixed tissues were washed twice in distillated water with 0.1% Tween 20, and then incubated for 30 min in TBST. The tissues were incubated for 90 min at 55° C. with 50 μg/ml PK in TBST and further washed three times in TBS. PK was denatured by incubating the tissues in a 3 M guanidine thiocyanate in 10 mM Tris-HCl solution for 10 min. […]

| SMILES | DNA oxidative damage (8-oxo-dG immunoreactivity in the nucleus) caused by toxin (N27 cells) | increase of flag-tagged WT α-synuclein aggregation vs control cells [1] [fold] | A11 immunoreactivity vs controls (α-synuclein) | PK-resistant α-synuclein immunoreactivity (α-synuclein) | increase in aggregated α-synuclein-positive cells vs control (α-synuclein; 800 μM) [%] | increase in aggregated α-synuclein-positive cells vs control (α-synuclein; 1000 μM) [%] |
| --- | --- | --- | --- | --- | --- | --- |
| NCCc1cc(O)c(O)cc1O [6-OHDA, 6-hydroxydopamine] | increased DNA oxidative damage | – | – | – | – | – |
| C[n+]1ccc(-c2cc[n+](C)cc2)cc1 [PQ, paraquat] | – | 2.5 | high A11 immunoreactivity | higher PK-resistant α-synuclein immunoreactivity | 62 | 64 |
